Reference: patent US20260242338A1, “CRYSTALS OF N[…]” (KYOTO DRUG DISCOVERY & DEVELOPMENT CO., LTD., priority 2022, published 2026)
Read-outs that look alike come from different tables or passages of the source.

Assay type: physicochemical
Protocol: X-ray powder diffraction data were acquired using PhotonMax high-flux 9 KW rotating cathode X-ray generator (SmartLab 9 KW, Rigaku). All diffractograms were acquired using copper radiation (CuKα, 45 kV/200 mA, λ=1.5418 Å) and using KB filter to reduce unneeded radiation. The measurement was carried out by placing the sample gently crushed in an agate mortar on a measurement stand and then scanning the sample under 2θscanning conditions with a scanning range of 3° to 40°, a scanning speed of 20°/min, and a step size of 0.02°.
X-ray powder diffraction data were acquired using a diffractometer (MiniFlex 600, Rigaku). All diffractograms were acquired using copper radiation (CuKα, 40 kV/15 mA, λ=1.5418 Å) and using KB filter to reduce unneeded radiation. Scanning was carried out in 2θ with a scanning range of 5° to 50°, a scanning speed of 5°/min, and a step size of 0.02°.
The water content was measured using a coulometric moisture meter (CA-100, Nitto Seiko Analytech), using about 0.5 g of the solid sample, Aquamicron GEX as the solvent, and 3 mg of Aquamicron SS as a titrant.
The water content was measured using a Karl Fischer moisture meter (AQUACOUNTER AQV-2100, HIRANUMA) equipped with an electrolytic bath stirrer for iodine generation and a constant current potentiometer, using about 0.2 g of the solid sample, Aquamicron GEX as the solvent, and 3 mg of Aquamicron SS-Z as a titrant.
The crystal of KUS121 dihydrate was subjected to a normal storage stability test (25° C./60% RH, 18 months) and a storage stability test under accelerated test condition (40° C./75% RH, 6 months). For comparison, the crystal of KUS121 anhydride was also subjected to storage stability tests under accelerated test condition (40° C./75% RH, 6 months) and under ambient temperature condition (30 months).

[1] = 40° C./75% RH (6 months), dihydrate

For `Cc1cc(F)ccc1-c1ccc(/N=N/c2cc(S(=O)(=O)[O-])c3ccccc3c2N)cn1.[Na+]` [Crystal of KUS121 anhydride, Sodium 4-amino-3-[6-(4-fluoro-2-methylphenyl)pyridin-3-ylazo]naphthalene-1-sulfonate], the Content (40° C./75% RH (6 months)) was 100.8%, the Purity test (40° C./75% RH (6 months)) was 99.5% and the Water content (40° C./75% RH (6 months)) was 3.0%. The Water content (Ambient temperature (30 months)) was 9.1%, the Content (Initial) was 98.2% and the Purity test (Initial) was 99.5%. For the same compound, the Water content (Initial) was 0.8%.

Compound `Cc1cc(F)ccc1-c1ccc(/N=N/c2cc(S(=O)(=O)[O-])c3ccccc3c2N)cn1.[Na+]` [Crystal of KUS121 dihydrate, sodium 4-amino-3-[6-(4-fluoro-2-methylphenyl)pyridin-3-ylazo]naphthalene-1-sulfonate dihydrate] has a Content (25° C./60% RH (18 months)) of 99.6%, a Related substance (25° C./60% RH (18 months)) of 0.11% and a Water content (25° C./60% RH (18 months)) of 7.4%. It also gave a Related substance (40° C./75% RH (6 months)) of 0.09%, a Content [1] of 99.6% and a Water content [1] of 7.4%. The Related substance (Initial) was 0.07%, the Content (Initial, dihydrate) was 99.7% and the Water content (Initial, dihydrate) was 7.4%. For the same compound, the “Storage stability (overall statement)” value (compared with other hydrate crystals, accelerated test condition) was “had better storage stability than other hydrate crystals, and was extremely stable even under accelerated test condition”.
